Assay results published in paper PMC11231114 (EJNMMI Research, 2024).

How the values were obtained:
muscarinic M2 = molecular target: T1, muscarinic M2 (Homo sapiens, UniProt P08172); experiment: Functional assay at several concentrations; assay type: biochemical; details: antagonistic effect
T1 sequence (P08172 1-466): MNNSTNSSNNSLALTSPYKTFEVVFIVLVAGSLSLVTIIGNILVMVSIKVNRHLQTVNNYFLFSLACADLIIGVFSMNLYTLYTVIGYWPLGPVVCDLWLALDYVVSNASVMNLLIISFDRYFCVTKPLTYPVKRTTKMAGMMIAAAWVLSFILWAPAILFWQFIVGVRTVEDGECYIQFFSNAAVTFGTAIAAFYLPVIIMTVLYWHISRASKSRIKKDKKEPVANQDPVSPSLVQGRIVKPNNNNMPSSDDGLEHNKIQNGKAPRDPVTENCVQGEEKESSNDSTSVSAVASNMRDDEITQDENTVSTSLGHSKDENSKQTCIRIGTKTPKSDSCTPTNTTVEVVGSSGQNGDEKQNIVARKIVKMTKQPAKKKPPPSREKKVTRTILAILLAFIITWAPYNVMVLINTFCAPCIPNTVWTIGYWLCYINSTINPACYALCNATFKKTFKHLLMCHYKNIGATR
Procedure: (§1) IC50 values from pharmacodynamics assessment were determined by a non-linear, least squares regression analysis using MathIQ™ (ID Business Solutions Ltd., UK). […] Where presented, the Hill coefficient (nH), defining the slope of the competitive binding curve, was calculated using MathIQ™.

hERG = hERG (Homo sapiens, UniProt Q12809); experiment: Functional assay at several concentrations; assay type: biochemical; details: antagonistic effect
Procedure: as §1

potassium channel hERG = molecular target: T2, potassium channel hERG (Homo sapiens, UniProt Q12809); experiment: Radioligand binding assay (LeadProfilingScreen SafetyScreen panel); details: 1 µM
T2 construct: purchased Eurofins Panlabs, Inc. PP68
Procedure: (§2) The possibility of pharmacological interactions of SYN2 was assessed in vitro in radioligand binding assays on key pharmacological target classes including GPCRs, drug transporters, ion channels, nuclear receptors and enzymes (LeadProfilingScreen SafetyScreen, PP68, Panel of 68 receptors, Eurofins Panlabs, Inc.). There was only one SYN2 concentration of 1 µM used in the study.
(§3) IC50 values from pharmacodynamics assessment were determined by a non-linear, least squares regression analysis using MathIQ™ (ID Business Solutions Ltd., UK). Where inhibition constants (Ki) are presented, the Ki values were calculated using the equation of Cheng and Prusoff using the observed IC50 of the tested compound, the concentration of radioligand employed in the assay, and the historical values for the KD of the ligand (obtained experimentally at Eurofins Panlabs, Inc.). Where presented, the Hill coefficient (nH), defining the slope of the competitive binding curve, was calculated using MathIQ™.

[1] = molecular target: T3, muscarinic acetylcholine M1 receptor (Homo sapiens, UniProt P11229); experiment: as above; details: 1 µM
T3 construct: purchased Eurofins Panlabs, Inc. PP68
T3 sequence (P11229 1-460): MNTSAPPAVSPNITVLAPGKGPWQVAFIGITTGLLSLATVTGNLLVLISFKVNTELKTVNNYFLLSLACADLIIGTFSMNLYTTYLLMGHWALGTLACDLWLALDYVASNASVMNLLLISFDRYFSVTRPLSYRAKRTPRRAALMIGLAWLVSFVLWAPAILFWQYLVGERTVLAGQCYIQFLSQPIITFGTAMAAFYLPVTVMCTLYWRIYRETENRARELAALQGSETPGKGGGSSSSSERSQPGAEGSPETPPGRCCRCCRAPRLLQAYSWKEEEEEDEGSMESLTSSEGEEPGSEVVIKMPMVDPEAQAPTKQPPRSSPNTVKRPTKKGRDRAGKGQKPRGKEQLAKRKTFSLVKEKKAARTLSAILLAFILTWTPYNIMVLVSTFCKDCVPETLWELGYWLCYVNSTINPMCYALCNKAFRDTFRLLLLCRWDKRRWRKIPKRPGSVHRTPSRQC
Procedure: as §2, §3

[2] = molecular target: T4, muscarinic M2 acetylcholine receptor (Homo sapiens, UniProt P08172); experiment: as above; details: 1 µM
T4 construct: purchased Eurofins Panlabs, Inc. PP68
T4 sequence (P08172 1-466): T1 sequence (P08172 1-466)
Procedure: as §2, §3

Wistar rats = experiment: Extended single dose toxicity study, i.v. 2 mg/kg b.w.
Procedure: Throughout the experiment, the animals’ behaviour was observed and their weight recorded.
The normality distribution was tested with Shapiro-Wilk test. For homogeneity of variance Brown-Forsythe test has been used. For normal distribution and homogeneous variances results, Student’s t-test was used. In the absence of normal distribution, Mann-Whitney test was used. In the case of non-homogenous variance, Cochrane-Cox test was used.

[3] = test system: GPCRs, drug transporters, ion channels, nuclear receptors and enzymes; experiment: Radioligand binding assays, remaining 65 assays of the panel of 68; details: 1 µM
Procedure: as §2, §3

[4] = Plasma pharmacokinetics of non-radioactive SYN2, single i.v. 2 mg/kg, LC-MS/MS; assay type: in vivo, Wistar rats
Procedure: The pharmacokinetic study was also conducted using non-radioactive reference standard of [^18F]SYN2 after a single i.v. administration at a dose of 2 mg/kg in rats. Blood samples of about 0.5 ml were collected in K3-EDTA tubes at pre-dose time and 4 min, 15 min, 30 min, 60 min, 4 h, and 24 h after injection (three rats were used at each time point, each rat was bled twice). Blood samples were then centrifuged at approx. 3270 g at 5 ± 3 °C for 10 min to extract plasma, divided in two aliquots and analysed (54 plasma samples in total). The concentrations of SYN2 were determined according to a LC-MS/MS validated method according to the Guidance for Industry (FDA) and Guidance on Validation of Bioanalytical Methods (EMA).

[5] = Expected human Cmax after body surface area correction; details: read-out: expected Cmax, proposed maximum limit dose of 100 µg (2 µg/kg for a 50-kg patient)
human hepatocytes = experiment: Metabolite profiling in cryopreserved hepatocytes (in vitro MetID); assay type: in vitro ADME; details: for Relative abundance of metabolites calculated as % of parent (SYN2), Human: 1 µM SYN2, 37 °C
Procedure: (§4) The metabolite profiling and characterization experiment of SYN2 molecule (in vitro MetID, Admescope) was conducted to evaluate potential metabolic pathways. In order to characterize the metabolites of SYN2, the compound was incubated in cryopreserved rat, dog and human hepatocytes. Prior to the incubation, the hepatocytes were thawed, suspended in Williams medium E and then centrifuged to receive a target density of about 1 million cells/ml. A SYN2 solution of 1 µM was then added to the hepatocyte suspension and incubated at 37 °C for 0, 30 and 60 min. The incubations were stopped by the addition of acetonitrile, then frozen and centrifuged to remove precipitated proteins. Supernatants were then analysed with ultra-performance liquid chromatography (UPLC) and high-resolution mass spectrometry (HRMS).
(§5) Compound Discoverer (CD) was used for data mining with manual confirmation for metabolite profiling and characterization.

dog hepatocytes = experiment: as above; assay type: in vitro ADME; details: for Relative abundance of metabolites calculated as % of parent (SYN2), Dog: 1 µM SYN2, 37 °C
Procedure: as §4, §5

rat hepatocytes = experiment: as above; assay type: in vitro ADME; details: for Relative abundance of metabolites calculated as % of parent (SYN2), Rat: 1 µM SYN2, 37 °C
Procedure: as §4, §5

[6] = clinical examinations, 2 mg/kg b.w. i.v., treated vs control
[7] = clinical-chemical examinations, 2 mg/kg b.w. i.v., treated vs control
[8] = post mortem examination, 2 mg/kg b.w. i.v., treated vs control

T2 sequence (Q12809 whole entry): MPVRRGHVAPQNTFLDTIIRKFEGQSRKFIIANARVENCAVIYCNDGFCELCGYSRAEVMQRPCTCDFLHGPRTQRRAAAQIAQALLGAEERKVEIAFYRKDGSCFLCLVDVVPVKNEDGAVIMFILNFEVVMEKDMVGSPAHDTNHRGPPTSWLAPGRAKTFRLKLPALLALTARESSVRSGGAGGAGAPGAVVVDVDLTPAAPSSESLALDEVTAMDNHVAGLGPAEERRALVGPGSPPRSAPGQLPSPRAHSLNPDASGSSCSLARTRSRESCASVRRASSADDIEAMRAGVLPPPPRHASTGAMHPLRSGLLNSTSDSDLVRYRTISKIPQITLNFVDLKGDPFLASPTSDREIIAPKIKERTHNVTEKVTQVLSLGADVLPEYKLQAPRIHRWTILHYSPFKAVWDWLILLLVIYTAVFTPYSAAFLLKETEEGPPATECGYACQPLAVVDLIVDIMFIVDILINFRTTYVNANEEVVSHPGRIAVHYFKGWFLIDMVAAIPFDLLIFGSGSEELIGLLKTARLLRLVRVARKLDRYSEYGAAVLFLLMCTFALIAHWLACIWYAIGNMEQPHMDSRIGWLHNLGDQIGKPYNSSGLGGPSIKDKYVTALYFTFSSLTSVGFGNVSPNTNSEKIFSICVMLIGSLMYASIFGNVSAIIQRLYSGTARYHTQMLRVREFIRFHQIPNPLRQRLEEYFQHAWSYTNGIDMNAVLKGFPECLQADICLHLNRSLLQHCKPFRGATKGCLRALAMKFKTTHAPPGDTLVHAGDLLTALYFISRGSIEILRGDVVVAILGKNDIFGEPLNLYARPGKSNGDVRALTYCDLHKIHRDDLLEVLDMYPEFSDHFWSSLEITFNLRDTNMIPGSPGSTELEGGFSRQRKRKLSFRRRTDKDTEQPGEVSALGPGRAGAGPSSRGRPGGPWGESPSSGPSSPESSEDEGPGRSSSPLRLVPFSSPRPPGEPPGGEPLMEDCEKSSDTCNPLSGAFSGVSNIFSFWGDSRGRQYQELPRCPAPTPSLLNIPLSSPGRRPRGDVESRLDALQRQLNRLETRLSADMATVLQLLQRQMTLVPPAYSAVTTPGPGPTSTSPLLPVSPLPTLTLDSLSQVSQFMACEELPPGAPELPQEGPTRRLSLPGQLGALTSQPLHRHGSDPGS
Sequence of hERG (Q12809 whole entry): as above

With CN(C)c1ccc2cc3ccc(N(C)C)cc3[n+](CCF)c2c1 [SYN2] the IC50 (muscarinic M2) was roughly 1000 nM, the IC50 (hERG) was roughly 1000 nM and the inhibition (potassium channel hERG) was 57%. The inhibition [1] was 58%, the inhibition [2] was 68% and the Body weight (Wistar rats; [6]) was “-”. For the same compound, the Clinical observations (Wistar rats; [6]) was “-”, the Mortality (Wistar rats; [6]) was “-” and the Biochemical investigations (Wistar rats; [7]) was “+”. The Enzymatic investigations (Wistar rats; [7]) was “+”, the Haematological investigations (Wistar rats; [7]) was “-” and the Gross examination (Wistar rats; [8]) was “+”. The Histopathological examinations (Wistar rats; [8]) was “+”, the “Weight of internal organs” value (Wistar rats; [8]) was “+” and the “Tolerability in the toxicological study” value (Wistar rats; single i.v. 2 mg/kg b.w., Wistar rats) was “well-tolerated”. The “No Observed Adverse Effect Level (NOAEL)” value (Wistar rats; single i.v. dose, Wistar rats) was 2 mg/kg, the “mean response, remaining 65 assays” value [3] was 7.63% and the “median response, remaining 65 assays” value [3] was 4%. For the same compound, the AUCt ([4]; rat plasma) was 73.75 ng·h/mL, the Clast ([4]; rat plasma) was 8.95 ng/mL and the Cmax ([4]; rat plasma) was 368.67 ng/mL. The Tmax ([4]; rat plasma) was 4.2 min, the Vz ([4]; rat plasma) was 0.99 L/kg and the Cl ([4]; rat plasma clearance) was 43.2 mL/min/kg. The T½λz ([4]; terminal half-life, rat plasma) was 15.6 min, the Cmax [5] was 1.1 nM and the “Relative abundance of metabolites calculated as % of parent (SYN2), Human” value (human hepatocytes; 30 min) was 100 % of parent. The “Relative abundance of metabolites calculated as % of parent (SYN2), Human” value (human hepatocytes; 60 min) was 100 % of parent, the “unchanged SYN2 remaining” value (human hepatocytes; after 60 min, human hepatocytes) was 70% and the “Relative abundance of metabolites calculated as % of parent (SYN2), Dog” value (dog hepatocytes; 30 min) was 100 % of parent. For the same compound, the “Relative abundance of metabolites calculated as % of parent (SYN2), Dog” value (dog hepatocytes; 60 min) was 100 % of parent, the unchanged parent remaining (dog hepatocytes; after 60 min, dog hepatocytes) was 5% and the “Relative abundance of metabolites calculated as % of parent (SYN2), Rat” value (rat hepatocytes; 30 min) was 100 % of parent. The “Relative abundance of metabolites calculated as % of parent (SYN2), Rat” value (rat hepatocytes; 60 min) was 100 % of parent and the unchanged parent remaining (rat hepatocytes; after 60 min, rat hepatocytes) was 32%.
